Literature values in patent US20190105332A1, “METHODS OF TREATING PROSTATE CANCER” (Janssen Oncology, Inc., priority 2017, published 2019).
Read-outs that look alike come from different tables or passages of the source.

Experiments:
[1] = for activity of metabolite / share of exposure as circulating metabolite in human plasma: in vivo
[2] = system: human plasma proteins, albumin and alpha-1 acid glycoprotein
[3] = end-stage renal disease on dialysis; single oral 1,000 mg dose
P-glycoprotein (P-gp) = P-glycoprotein (P-gp) (Homo sapiens, UniProt P08183); conditions: in vitro, clinically relevant concentrations
CYP2C9 = molecular target: T1, CYP2C9 (Homo sapiens, UniProt P11712); conditions: human hepatic microsomes
T1 construct: In vitro studies with human hepatic microsomes; from tissue; host or cells: human hepatic microsomes

[4] = not given; remark: listed apart in the source
[5] = not given; remark: listed apart in the source
[6] = rat micronucleus assay
CYP1A2 = molecular target: T2, CYP1A2 (Homo sapiens, UniProt P05177); design: In vitro studies with human hepatic microsomes; from tissue; host or cells: human hepatic microsomes; conditions: human hepatic microsomes
T2 sequence (P05177 1-516): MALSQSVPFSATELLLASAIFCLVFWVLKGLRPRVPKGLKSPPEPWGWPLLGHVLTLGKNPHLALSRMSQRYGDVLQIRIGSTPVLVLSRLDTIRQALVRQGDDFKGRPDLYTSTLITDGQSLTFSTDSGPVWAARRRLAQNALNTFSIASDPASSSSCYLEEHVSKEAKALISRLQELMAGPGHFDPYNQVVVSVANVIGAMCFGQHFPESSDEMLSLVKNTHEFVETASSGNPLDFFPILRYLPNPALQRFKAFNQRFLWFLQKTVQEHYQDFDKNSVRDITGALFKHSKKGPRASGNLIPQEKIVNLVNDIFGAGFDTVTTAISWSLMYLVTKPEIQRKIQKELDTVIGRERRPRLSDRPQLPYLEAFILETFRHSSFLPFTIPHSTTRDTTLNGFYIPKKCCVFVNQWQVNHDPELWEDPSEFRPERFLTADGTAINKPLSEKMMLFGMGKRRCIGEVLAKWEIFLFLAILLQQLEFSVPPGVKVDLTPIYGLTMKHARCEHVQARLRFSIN

CYP3A4 [7] = molecular target: T3, CYP3A4 (Homo sapiens, UniProt P08684); conditions: in vitro
CYP3A4 [8] = molecular target: T3, CYP3A4; design: from tissue; host or cells: in vivo, healthy human subjects (endogenous enzyme); conditions: healthy subjects
OATP1B1 = molecular target: T4, OATP1B1 (Homo sapiens, UniProt Q9Y6L6); conditions: in vitro
T4 sequence (Q9Y6L6 1-691): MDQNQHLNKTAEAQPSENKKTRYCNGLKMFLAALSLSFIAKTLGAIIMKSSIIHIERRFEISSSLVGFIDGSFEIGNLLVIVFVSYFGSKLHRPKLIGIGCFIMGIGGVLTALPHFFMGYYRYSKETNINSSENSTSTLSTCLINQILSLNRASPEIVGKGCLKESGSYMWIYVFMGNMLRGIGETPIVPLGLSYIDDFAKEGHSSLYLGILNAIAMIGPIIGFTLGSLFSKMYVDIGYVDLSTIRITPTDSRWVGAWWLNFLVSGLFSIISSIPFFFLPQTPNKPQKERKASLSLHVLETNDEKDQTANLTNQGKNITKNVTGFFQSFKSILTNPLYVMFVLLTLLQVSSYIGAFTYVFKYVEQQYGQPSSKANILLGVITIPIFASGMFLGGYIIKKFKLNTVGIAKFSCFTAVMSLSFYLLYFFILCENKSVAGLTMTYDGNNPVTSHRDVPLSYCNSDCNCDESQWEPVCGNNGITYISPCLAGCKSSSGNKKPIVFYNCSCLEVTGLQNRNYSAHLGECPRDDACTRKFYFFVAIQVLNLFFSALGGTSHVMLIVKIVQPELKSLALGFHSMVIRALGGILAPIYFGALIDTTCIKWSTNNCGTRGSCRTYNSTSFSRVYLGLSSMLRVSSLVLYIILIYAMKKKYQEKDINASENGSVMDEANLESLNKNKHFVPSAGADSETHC

[9] = system: primary human lymphocytes
CYP2D6 = molecular target: T5, CYP2D6 (Homo sapiens, UniProt P10635); conditions: human hepatic microsomes
T5 construct: from tissue; host or cells: in vivo, trial participants (endogenous hepatic enzyme)

[10] = healthy subjects, single dose with high-fat (57% fat, 825 calories) meal
[11] = healthy subjects, single dose with low-fat meal (7% fat, 300 calories)

T3 sequence (P08684 whole entry): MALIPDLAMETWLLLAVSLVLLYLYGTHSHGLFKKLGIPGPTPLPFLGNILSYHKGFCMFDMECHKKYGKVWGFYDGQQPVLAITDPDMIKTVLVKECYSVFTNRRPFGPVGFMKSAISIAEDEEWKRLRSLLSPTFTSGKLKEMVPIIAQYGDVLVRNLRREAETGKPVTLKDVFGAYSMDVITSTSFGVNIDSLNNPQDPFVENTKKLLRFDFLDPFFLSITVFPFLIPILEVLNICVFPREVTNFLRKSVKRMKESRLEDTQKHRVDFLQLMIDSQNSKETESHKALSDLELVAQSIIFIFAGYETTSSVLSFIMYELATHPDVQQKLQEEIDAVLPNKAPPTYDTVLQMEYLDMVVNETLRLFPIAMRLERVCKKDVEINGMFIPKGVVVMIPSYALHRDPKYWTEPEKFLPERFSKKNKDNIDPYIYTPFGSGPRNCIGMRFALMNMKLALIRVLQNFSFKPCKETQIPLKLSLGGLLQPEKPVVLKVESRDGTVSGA
T1 sequence (P11712 whole entry): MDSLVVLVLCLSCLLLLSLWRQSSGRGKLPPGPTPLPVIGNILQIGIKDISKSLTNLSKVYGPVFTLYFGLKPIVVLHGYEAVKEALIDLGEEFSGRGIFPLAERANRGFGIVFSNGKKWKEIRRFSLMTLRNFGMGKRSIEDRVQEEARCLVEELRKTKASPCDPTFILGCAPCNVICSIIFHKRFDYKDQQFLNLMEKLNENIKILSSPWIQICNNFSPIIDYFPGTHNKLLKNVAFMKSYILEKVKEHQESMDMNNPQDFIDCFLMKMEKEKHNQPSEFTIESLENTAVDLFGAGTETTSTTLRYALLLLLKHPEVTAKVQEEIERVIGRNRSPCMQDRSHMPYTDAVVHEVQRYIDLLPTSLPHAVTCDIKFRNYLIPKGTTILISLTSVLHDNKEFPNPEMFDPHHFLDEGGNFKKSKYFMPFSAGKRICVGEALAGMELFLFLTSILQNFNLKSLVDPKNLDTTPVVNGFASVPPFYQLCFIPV
Sequence of P-glycoprotein (P-gp) (P08183 whole entry): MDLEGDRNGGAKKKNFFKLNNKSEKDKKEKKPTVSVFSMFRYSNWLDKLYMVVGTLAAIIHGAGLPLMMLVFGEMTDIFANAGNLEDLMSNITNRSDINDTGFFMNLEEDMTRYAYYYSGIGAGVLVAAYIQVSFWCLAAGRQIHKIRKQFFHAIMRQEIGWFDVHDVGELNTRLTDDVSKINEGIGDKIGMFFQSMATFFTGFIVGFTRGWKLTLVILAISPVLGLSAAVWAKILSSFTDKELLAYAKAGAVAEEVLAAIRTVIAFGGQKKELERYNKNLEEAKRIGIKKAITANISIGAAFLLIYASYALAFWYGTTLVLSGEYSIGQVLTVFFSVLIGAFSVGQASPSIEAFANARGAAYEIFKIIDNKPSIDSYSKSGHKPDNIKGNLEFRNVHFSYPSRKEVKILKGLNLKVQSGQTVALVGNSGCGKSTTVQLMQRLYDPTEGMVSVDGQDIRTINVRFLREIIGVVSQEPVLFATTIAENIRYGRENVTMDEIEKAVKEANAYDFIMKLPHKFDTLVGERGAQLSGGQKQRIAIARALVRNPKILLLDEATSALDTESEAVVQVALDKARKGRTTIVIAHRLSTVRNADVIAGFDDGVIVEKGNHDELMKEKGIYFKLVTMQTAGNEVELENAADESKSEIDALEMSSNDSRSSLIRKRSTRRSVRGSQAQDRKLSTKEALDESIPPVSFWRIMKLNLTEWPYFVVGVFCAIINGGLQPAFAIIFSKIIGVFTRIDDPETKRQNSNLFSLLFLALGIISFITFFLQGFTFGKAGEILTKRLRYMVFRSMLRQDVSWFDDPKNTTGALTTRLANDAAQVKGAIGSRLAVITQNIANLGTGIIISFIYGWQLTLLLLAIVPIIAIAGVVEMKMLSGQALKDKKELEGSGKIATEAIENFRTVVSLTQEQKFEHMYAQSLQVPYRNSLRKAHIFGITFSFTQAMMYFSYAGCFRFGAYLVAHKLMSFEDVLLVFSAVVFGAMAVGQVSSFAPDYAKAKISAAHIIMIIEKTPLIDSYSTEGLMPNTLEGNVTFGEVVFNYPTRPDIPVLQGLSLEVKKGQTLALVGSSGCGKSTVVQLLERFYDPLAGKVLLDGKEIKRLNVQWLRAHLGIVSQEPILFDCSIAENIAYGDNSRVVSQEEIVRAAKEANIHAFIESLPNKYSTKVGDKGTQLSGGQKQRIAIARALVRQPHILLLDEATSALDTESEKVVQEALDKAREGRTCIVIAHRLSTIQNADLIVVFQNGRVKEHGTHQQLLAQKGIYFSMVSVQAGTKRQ
T5 sequence (P10635 whole entry): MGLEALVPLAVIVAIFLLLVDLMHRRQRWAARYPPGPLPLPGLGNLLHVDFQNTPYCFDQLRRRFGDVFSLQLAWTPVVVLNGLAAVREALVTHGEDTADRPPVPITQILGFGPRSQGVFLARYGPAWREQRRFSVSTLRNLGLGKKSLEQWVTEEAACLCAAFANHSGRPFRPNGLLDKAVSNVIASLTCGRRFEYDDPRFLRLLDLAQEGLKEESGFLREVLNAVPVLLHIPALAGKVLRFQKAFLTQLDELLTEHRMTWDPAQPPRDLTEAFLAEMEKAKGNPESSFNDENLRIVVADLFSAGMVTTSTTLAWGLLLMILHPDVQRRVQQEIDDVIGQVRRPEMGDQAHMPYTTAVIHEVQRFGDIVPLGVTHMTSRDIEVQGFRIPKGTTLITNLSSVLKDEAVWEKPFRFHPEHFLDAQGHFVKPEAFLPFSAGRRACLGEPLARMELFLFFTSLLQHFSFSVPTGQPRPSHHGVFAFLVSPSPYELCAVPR

C[C@]12CC[C@H](OS(=O)(=O)O)CC1=CC[C@@H]1[C@@H]2CC[C@]2(C)C(c3ccc[n+]([O-])c3)=CC[C@@H]12 [N-oxide abiraterone sulphate]
activity of metabolite [1]: inactive | share of exposure as circulating metabolite in human plasma [1]: about 43%

C[C@]12CC[C@H](O)CC1=CC[C@@H]1[C@@H]2CC[C@]2(C)C(c3cccnc3)=CC[C@@H]12 [abiraterone]
compound present in feces, share of the administered dose ([1]; oral 14C-abiraterone acetate): ~22% | bound to human plasma proteins [2]: > 99% | steady-state Cmax (mean±SD) (1,000 mg daily, patients with metastatic CRPC): 226 ± 178 ng/mL | dose proportionality (dose range of 250 mg to 1,000 mg): No major deviation from dose proportionality | increase in the mean AUC when dose doubled (from 1,000 to 2,000 mg): 8% | accumulation: steady-state AUC compared to a single 1,000 mg dose (human, in vivo): 2 fold | median time to reach maximum plasma abiraterone concentrations (oral abiraterone acetate, patients with metastatic CRPC): 2 h | systemic exposure vs normal renal function [3]: did not increase | substrate of P-glycoprotein (P-gp) (P-glycoprotein (P-gp)): not substrates | inhibition of CYP2C9 (CYP2C9): to a lesser extent | mean half-life ([4]; mild hepatic impairment): approximately 18 hours | mean half-life ([4]; moderate hepatic impairment): approximately 19 hours | systemic exposure (AUC) increase vs normal hepatic function ([4]; moderate hepatic impairment (Child-Pugh Class B), single oral 1,000 mg dose): ~3.6 fold | systemic exposure (AUC) increase vs normal hepatic function ([4]; severe hepatic impairment (Child-Pugh Class C)): approximately 7 fold | AUC0-∞, fold higher vs overnight fasting [5, 10]: ~10 fold | Cmax, fold higher vs overnight fasting [5, 10]: approximately 17 fold | AUC0-∞, fold higher vs overnight fasting [5, 11]: ~5 fold | Cmax, fold higher vs overnight fasting [5, 11]: approximately 7 fold | systemic exposure increase vs dosing away from meals ([5]; patients with metastatic CRPC, repeated dosing with high-fat meals for 7 days): approximately 2 fold | systemic exposure vs dosing away from meals ([5]; patients with metastatic CRPC, repeated dosing with low-fat meals for 7 days): similar | AUC0-∞, fold higher vs overnight fasting ([5]; single dose 1 hour before a medium fat meal (25% fat, 491 calories)): ~1.6 fold | AUC0-∞, fold higher vs overnight fasting ([5]; single dose 2 hours after a medium fat meal (25% fat, 491 calories)): approximately 7 fold | clastogenicity in vivo [6]: not mutagenic in an in vitro microbial mutagenesis (Ames) assay or clastogenic | inhibition of CYP1A2 (CYP1A2): potential to inhibit | substrate of CYP3A4 (CYP3A4 [7]): substrate | effect of ketoconazole co-administration on pharmacokinetics (CYP3A4 [8]): no clinically meaningful effect | decrease of exposure (mean plasma AUC∞) with rifampin (CYP3A4 [8]; rifampin 600 mg daily for 6 days, then single 1,000 mg abiraterone acetate): 55% | inhibition of hepatic uptake transporter OATP1B1 (OATP1B1): inhibit | clastogenicity in vitro [9]: not mutagenic in an in vitro microbial mutagenesis (Ames) assay or clastogenic | inhibition of CYP2D6 (CYP2D6): potential to inhibit

abiraterone sulphate
activity of metabolite [1]: inactive | share of exposure as circulating metabolite in human plasma [1]: about 43%
